{"source": "patent US20090186827A1", "about": "“Process of inhibiting cell death in injured cartilage” (The Scripps Research Institute, priority 2001, published 2009)", "key": {"[1]": {"system": "bovine cartilage explants", "assay": "Load-induced chondrocyte apoptosis (TUNEL) in bovine cartilage explants", "format": "cell-based", "text": "Cartilage explants. Macroscopically normal weight bearing portions of freshly slaughtered skeletally mature bovine femoral condyles were selected from animals between 2 and 6 years of age (Animal Technologies, Austin, Tex.). Only joints without visible signs of degeneration or aging were selected. Using sterile techniques, full thickness cartilage was separated from underlying subchondral bone with a scalpel and 5 mm diameter cylindrical explants, ranging from 1 to 1.8 mm in height, cored out using a dermal punch (Acuderm, Inc., Ft. Lauderdale, Fla.). Explants taken from adjacent sites were used as matched controls for each group in each experiment to minimize variation in cartilage response due to differences in thickness and location within the joint. Each explant was weighed and allowed to stabilize at 37° C. and 5% CO2 for 48 hours in 1 ml of Dulbecco's modified Eagle's medium (DMEM) supplemented with 10% fetal bovine serum (FBS), L-glutamine, antibiotics and 50 μg/ml ascorbic acid.\n(§1) Loading apparatus and procedure. […] Stress and strain data were recorded during the test.\nApoptosis detection. […] TUNEL positive cells emit a bright green fluorescence while TUNEL negative cells display an orange color due to propidium iodide counterstaining. […] Cells in all areas were counted and divided into TUNEL positive or TUNEL negative. […]"}, "[2]": {"system": "bovine cartilage explants", "assay": "Glycosaminoglycan (GAG) release assay, mechanically injured bovine cartilage explants", "format": "cell-based", "details": "loaded bovine explants treated with caspase inhibitor", "procedure": "Glycosaminoglycan release assay. To estimate GAG depletion and release, the concentration of sulfated glycosaminoglycans was measured using […] (DMMB) as a monitor of spectrophotometric changes which occur during the formation of the sulfated GAG dye complex (Farndale, et al. (1986) Biochim. Biophys. Acts. 883, 173-177, Goldberg, et al. (1993) Agents Actions 39 Spec No, C163-C165). For GAG content measurement, samples were digested in papain and collagenase and the concentration of sulfated GAG measured using DMMB. To generate a standard curve, chondroitin-6-sulfate (Sigma, St. Louis, Mo.) was used at concentrations between 1 and 200 μg/ml. GAG released in media was normalized to the pooled mean GAG content of Control (uninjured) cartilage explants and expressed as a percentage of total GAG content.\nInhibition of apoptosis. To determine whether apoptosis could be prevented by caspase inhibition, 12 explants were loaded at 23 MPa (High Load) and cultured for 48 hours. […] Percent apoptosis and GAG release in media was measured as described above.\nRelease of sulfated glycosaminoglycans (GAG) was analyzed as a measure of the extent of damage sustained by the explant. […] GAG depletion was assessed by dimethylene blue binding assays of the culture supernatants and this correlated with the reduced of safranin O staining of the cartilage sections."}, "human cartilage explants": {"system": "human cartilage explants", "assay": "Load-induced chondrocyte apoptosis (TUNEL) in human cartilage explants", "format": "cell-based", "details": "loaded explants (30% strain) cultured in 100 mM z-VAD.fmk after injury, 96 hours post-injury", "text": "Cartilage explants. Macroscopically normal tibial and femoral articular surfaces were selected from human cadaver donors between 18 and 45 years of age. Using sterile techniques, full thickness cartilage was separated from underlying subchondral bone with a scalpel. 5 mm diameter cylindrical explants, ranging from 2 to 2.8 mm in thickness, cored out using a dermal punch (Acuderm, Inc., Ft. Lauderdale, Fla.). Explants taken from adjacent sites were used as matched controls for each group in each experiment to minimize variation in cartilage response due to differences in thickness and location within the joint. […]\nas §1\nCaspase inhibition. […] Percentage apoptosis was measured at 96 hours post-injury in three groups (control, loaded, and loaded with z-VAD.fmk) with ten explants each in two separate experiments.\nApoptosis detection. […] This was detected by immunohistochemical staining with M30 (Cytodeath, Boehringer Mannheim, Eugene, Oreg.), a monoclonal antibody that recognizes the neo-epitope exposed in early apoptosis.\nChondrocyte apoptosis after mechanical injury to human cartilage. […] GAG release and percentage of cells undergoing apoptosis were measured at 96 hours after injury. […]"}, "[3]": {"system": "femoral and tibial articular cartilage", "assay": "Intraarticular injection of caspase inhibitor in rabbits with anterior cruciate ligament transection (ACLT)", "format": "in vivo, New Zealand White rabbits", "procedure": "Intraarticular injection of caspase inhibitor in rabbits with ligament transection. A pilot study was performed to assess feasibility and efficacy of caspase inhibition in vivo. Eight New Zealand White rabbits were divided into anterior cruciate ligament transection (ACLT) and ACLT+caspase inhibitor (CI) groups. Both groups underwent bilateral ACLT. The ACLT+CI group was treated with intra-articular injections of 25 μg of z-VAD.fmk three times per week for six weeks while the control group received saline injections. Rabbits were euthanised at six weeks and femoral and tibial articular cartilage evaluated by India ink staining and histologic Mankin grading after Safranin-O stain."}}, "note": "Entries after “also recorded” stand apart in the source; their conditions may differ. Where a SMILES comes first, the peptide text is derived from it. The star is where a group is joined. Cbz = O=C(OCc1ccccc1)*; CH2F = FC*", "data": [{"smiles": "COC(=O)CC(NC(=O)C(C)NC(=O)C(NC(=O)OCc1ccccc1)C(C)C)C(=O)CF", "note": "(stereo not drawn) [z-VAD.fmk, benzyloxycarbonyl-Val-Ala-Asp (OMe) fluoromethylketone] (Cbz-Val-Ala-Asp(OMe)-CH2F; configuration not given here)", "values": [{"measurement": "reduction in the apoptosis rate", "setting": "[1]; high and intermediate load groups", "value": "> 50", "unit": "%"}, {"measurement": "chondrocyte apoptosis after mechanical injury (in words)", "setting": "[1]; loaded bovine explants, z-VAD.fmk 100 μM, 48 hours", "value": "reduced chondrocyte apoptosis"}, {"measurement": "GAG release / GAG depletion (in words)", "setting": "[2]", "value": "reduction in GAG release; also recorded: normalization of the GAG depletion"}, {"measurement": "reduction in apoptotic rates", "setting": "human cartilage explants", "value": 50, "unit": "%"}, {"measurement": "reduction of the size of the cartilage lesions (surface area, India ink stained femoral condyles)", "setting": "[3]; 25 μg intra-articular three times per week for six weeks, bilateral ACLT", "value": "~80", "unit": "%"}, {"measurement": "cartilage lesions under India ink examination (in words)", "setting": "[3]; ACLT+CI group, six weeks", "value": "lesions that were smaller in area"}, {"measurement": "knees with Mankin grade 5 or higher", "setting": "[3]; ACLT+CI group, six weeks, 4/8 knees", "value": 50, "unit": "%"}]}]}
